Measured values as given in patent US8507445B2, “Compositions and methods of use of targeting peptides for diagnosis and therapy of human cancer” (Board of Regents, The University of Texas System, priority 2002, dated 2013).
Each block holds one sequence with its values, some of them ahead of it.

Legend:
[1] = system: IgGs isolated from the ascites of ovarian cancer patients; test: Biopanning of CX7C phage library on IgGs from ovarian cancer ascites; assay type: binding, human
Description: To identify peptide epitopes specific for the anti-tumor immune response in ovarian cancer, a two-step screening procedure was followed (FIG. 34). The peptide library was initially pre-cleared on IVIg (intravenous immunoglobulins) to remove non-specific peptides. The pre-cleared peptide phage library was then incubated with IgGs isolated from the ascites of ovarian cancer patients. Phage bound to the ovarian cancer IgGs were recovered, amplified, and precipitated for subsequent rounds of biopanning. Following enrichment of a phage population that bound to ovarian cancer patient IgGs, individual phage clones were picked for sequence analysis to evaluate enrichment of the most consistently binding peptide sequences. Phage display biopanning was performed as described above.
Once the selection rounds were completed as determined by enrichment of phage capable of binding cancer patient IgGs over control at least 3 fold, sequencing and evaluation of the DNA phage insert were undertaken. To sequence the FUSE5 ssDNA directly, phage ssDNA was prepared using the StrataClean™ resin (Stratagene). StrataClean bead slurry was placed in a microcentrifuge tube containing phage. The mixture was vortexed strongly for 30 seconds and then incubated at room temperature for one minute. The tubes were centrifuged at 2,000×g for 1 minute. […]

[2] = system: antibodies isolated from the ascites of an ovarian cancer patient; test: Competition of ascites antibody binding to immobilized GST fusion protein; set-up: species or system human
Description: Inhibition studies were performed in a similar manner as the binding assays described above with the exception that either GST fusion protein or synthetic peptide corresponding to the phage clone were added to the experiment. Where the peptide is mediating the interaction with the immunoglobulins then an inhibition of phage binding should be observed in a dose dependent manner versus the synthetic peptide. GST alone and a control peptide containing unrelated amino acids were tested at identical concentrations.
Peptide sequences of interest were expressed as GST fusion proteins (described above) and used to screen banked ascites and serum to determine the role of the humoral response against these markers. The purified GST-fusion proteins were used to coat a 96-well plate at 100 ng/well at room temperature (RT) or at 4° C. overnight. Following coating, the wells were emptied, rinsed, and non-specific sites were blocked with 200 μl 3% BSA/PBS at RT for 1-2 hours. Cancer patient ascites and/or sera were applied to each coated and blocked well at 1:100 dilution and then incubated at RT for 1 hour. […] Signals were detected in the presence of p-nitrophenyl phosphate by measuring OD405 at specific intervals to follow the course of color development. […]

DU145 xenografts = test: Phage localization by anti-phage staining of tissues; assay type: in vivo, nude mice; conditions: 24 hour circulation
Description: To determine the specificity of the prostate tumor targeting peptides, 10^9 phage carrying the targeting peptide sequences […] (SEQ ID NO:83) and […] (SEQ ID NO:84) were injected into nude mice bearing DU145 xenografts. After 24 hour circulation, tissue samples were obtained from tumor and control organs (kidney, brain, lung and spleen). Tissue samples were washed immediately in DMAM and fixed in 10% formalin for 48 hours at room temperature. Thin sections were stained for phage using anti-phage antibody (1:500 dilution) and detected using the DAKO LSAB+ system. […] This may be due to the tendency of spleen tissue to trap phage and other foreign particles in general as part of the reticuloendothelial system.

[3] = system: MDA-MB-435 breast carcinoma; test: Phage localization, separate study; conditions: in vivo
HSP90α = target: T1, HSP90α (Homo sapiens, UniProt P07900); test: Receptor purification on biotinylated peptide beads; assay type: binding; conditions: MALDI analysis of excised bands
T1 construct: from tissue; host or cells: homogenate pellet of DU145 xenograft tumor grown in nude mice
Description: The prostate homing receptor for the B2 clone ([…] SEQ ID NO:83) was identified. Nude mice bearing DU145 xenografts were prepared and tissue samples from tumor, kidney and liver were removed. The tissue samples were immediately washed with PBS and three parts of homogenization buffer (PBS, 250 mM sucrose, 1 mM EDTA, protease inhibitors) was added to one part of tissue sample (about 4 ml). The tissue with homogenized with an electric grinder, then further homogenized with a dounce homogenizer. After sonication for 1 min on ice, the homogenate was centrifuged at 8000×g for 5 min. The supernatant was removed and the pellet was analyzed for receptor content.
The […] (SEQ ID NO:83) peptide was biotinylated and coupled to NeutrAvidin beads (Molecular Probes, Eugene, Oreg.) using standard methods. About 500 μg of biotinylated peptide was incubated with 1 ml of NeutrAvidin beads in binding buffer (0.5 M NaCl in PBS) overnight at 4° C. in a 2 ml column. The column was agitated using a rotator. Uncoupled peptides were removed and the beads washed three times with binding buffer and protease inhibitors. […]
The beads were washed four times with wash buffer (0.1% Triton X-100 in PBS with protease inhibitors) and the bound material eluted with 8 M guanidine HCl. Eluted proteins were analyzed on a 4-20% SDS-PAGE denaturing gel. […]

DU145 tumors = test: Competition of phage tumor localization by synthetic peptide; assay type: in vivo, nude mice; conditions: 300 μg synthetic peptide co-injected with phage
Description: Competition studies with the […] (SEQ ID NO:83) peptide were performed to determine whether it could inhibit localization of phage bearing the same targeting sequence to DU145 tumors. Nude mice bearing the prostate tumor xenograft were simultaneously injected with 300 μg of synthetic […] (SEQ ID NO:83) peptide and 10^9 phage bearing the same targeting peptide sequence. A control tumor-bearing mouse was co-injected with fd insertless phage plus synthetic peptide. After 24 hours of circulation, tumor tissue samples were removed, washed, fixed, sectioned and stained as disclosed above. Co-administration of synthetic peptide with the same targeting sequence inhibited the ability of […] (SEQ ID NO:83)-phage to localize to prostate carcinoma tissue (not shown). No staining of prostate carcinoma with control fd-tet phage was observed (not shown)

Sequence: CVPELGHEC
share of the phage clones sequenced [1]: 86%
inhibition of antibody binding to immobilized GST-CVPELGHEC [2]: competitively inhibited in a dose-dependent fashion

Sequence: YRCTLNSPFFWEDMTHECHA [listing 1 of 2 here]
anti-phage staining of control kidney, brain or lung (DU145 xenografts): No staining was observed
anti-phage staining of normal spleen (DU145 xenografts): low level of anti-phage staining
anti-phage staining of tumor (DU145 xenografts): very heavy staining
phage localization [3]: no apparent localization

receptor identified (HSP90α): HSP90α
Sequence: YRCTLNSPFFWEDMTHECHA [listing 2 of 2 here]
inhibition of phage localization to prostate carcinoma (DU145 tumors): inhibited
